Experimental data from patent US20160279154A1, “MITOCONDRIALLY-TARGETED TIMOQUINONES AND TOLUQUINONES” (MITOTECH SA, priority 2014, published 2016).
“Also recorded” adds a separate entry of the source.

Key:
[1] = tested on: multi-drug resistance (MDR) proteins in HeLa cells; assay: Accumulation of SkQ variants in HeLa cells / expulsion by MDR pumps (flow cytometry); format: cell-based, human; conditions: for accumulation in HeLa cells after MDR inhibitor: 100 nM SkQs, Pluronic L61 30 ug/ml added 10 minutes before, FIG. 17; for order of decreasing MDR-affinity: correlation suggested by the example
Procedure: In the following experiment we have evaluated MDR expulsion of a timoquinone based SkQRT. HeLa cells were treated with 100 nM SkQRT and the activity of multidrug resistance pumps was estimated by fluorescence measurement using a Beckman Coulter FC 500 flow cytometer. […] Cells were incubated with 100 nM SkQs. After 60 minute, the medium was changed to control medium without SkQs (indicated with vertical line). […] It must be noted that MDR pumps are usually activated in tumor cells (for example HeLa), but not in normal non-malignant cells (fibroblasts or 3T3 cells).

[2] = tested on: primary cultured human fibroblasts; assay: Accumulation in primary cultured human fibroblasts (non-tumor cells); format: cell-based; conditions: FIG. 18
[3] = tested on: human fibroblasts; assay: Protection from peroxide-induced cell death; format: cell-based; conditions: for protection from H2O2-induced apoptosis: FIG. 22
Procedure: Its activity was compared to the one of the most efficient MTA-SkQR1. The experiment was performed according to Antonenko et al., (Biochem. (Mosc.) (2008) 73:1273-1287 and the results are shown in FIG. 11.
The experiment was performed according to Antonenko et al., (Biochem. (Mosc.) (2008) 73:1273-1287. (see FIG. 12).
These experiments were performed as described in Antonenko et al (2008).

[4] = tested on: energized mitochondria; assay: Reduction of SkQB by energized mitochondria; format: biochemical; conditions: FIG. 19
[5] = tested on: mitochondria; assay: Hydrogen peroxide production by mitochondria in the presence of antimycin A; format: biochemical; conditions: FIG. 21
Description: In the next experiment we measured hydrogen peroxide production by mitochondria in the presence of antimycin A (as described in Skulachev et al 2010, Biochim Biophys Acta, 1797(6-7), 878-8).

[6] = tested on: isolated mitochondria; assay: Antioxidant activity in isolated mitochondria damaged by the Fenton reaction; conditions: FIG. 20
Procedure: Antioxidant activity was measured in isolated mitochodnria subjected to oxidative damage by the Fenton reaction (method described in Antonenko et al 2008).

[7] = tested on: mitochondria; conditions: mitochondria supplemented with certain concentrations of SkQT; FIG. 8
Description: Several compounds according to the invention were synthesized as described above and tested for biological activity as described in Antonenko et al., (Biochem. (Mosc.) (2008) 73:1273-1287).

[8] = tested on: rat liver mitochondria; assay: H2O2 formation by rat liver mitochondria (prooxidant effect, Amplex Red); format: biochemical; conditions: up to 15 um concentrations in the medium; FIG. 15
Procedure: Incubation medium contained 0.18 M mannitol, 0.07 M sucrose, 0.2 mM Tris-phosphate, 0.5 mM EGTA, pH 7.2, 20 mM Tris-succinate, 2 uM Amplex Red, 5 U horseradish Peroxidase, 6 mM aminotriazole (an inhibitor of catalase) and mitochondria corresponding to 0.25 mg protein. Excitation wavelength was of 563 nm, Emission wavelength was of 585 nm.

[9] = tested on: Y. lipolytica mitochondria; assay: H2O2 formation by Y. lipolytica mitochondria (Amplex red); format: biochemical; conditions: for rate of H2O2 formation by Y. lipolytica mitochondria: certain concentrations, 0.1 mg mitochondrial protein, FIG. 13, 14
Procedure: The experiment was performed in the following conditions: incubation medium contained 0.6 M mannitol, 20 mM Tris-succinate,0.5 mM EGTA, 0.2 mM Tris-phosphate, pH 7.2, 2 uM Amplex red, horse radish peroxidase (5 U) and mitochondria corresponding to 0.1 mg protein. […] Measurements were made using absorption/emission 530/590 nm.

[10] = tested on: electron transport chain (ETC) of mitochondria isolated from rat heart

accumulation in HeLa cells after MDR inhibitor [1]	accumulation in human fibroblasts, SkQR1 compared with SkQRT1 [2]	order of decreasing MDR-affinity [1]	Compound	protection from H2O2-induced apoptosis [3]	prooxidant effect: stimulation of H2O2 formation by rat liver mitochondria at high concentrations [8]	rate of H2O2 formation by Y. lipolytica mitochondria [9]	also measured
increased accumulation	no significant difference		CC/N=c1/cc2oc3cc(NCC)c(C)cc3c(-c3ccccc3C(=O)OCCCCCCCCCCC3=CC(=O)C(C)=C(C)C3=O)c-2cc1C [SkQR1, reference compound]				
		SkQB>SkQT>SkQ1>SkQ3	O=C1C=CC(=O)C(CCCCCCCCCC[P+](c2ccccc2)(c2ccccc2)c2ccccc2)=C1 [SkQB, 10-(1,4-benzoquinonyl-2)decyltriphenylphosphonium bromide]	weak protection			reduction by energized mitochondria [4]: can be reduced by energized mitochondria in an antimycin-sensitive way; hydrogen peroxide production (pro-oxidant activity) [5]: pronounced pro-oxidant activity; also recorded: to a greater extent than SkQ1; antioxidant activity [6]: very weak antioxidant activity; also recorded: lower compared to SkQ1
			10-(2-methyl-1,4-benzoquinonyl-5)decyltriphenylphosphonium bromide [SkQT]	good protection	did not stimulate H202 formation	dramatically decrease	protection of mitochondria from oxidative damage (malondialdehyde concentration) [7]: successfully protected mitochondria from oxidative damage; prevention of peroxide-induced cell death ([3]; FIG. 11): very efficient; protection from H2O2-induced cell death by different dosages ([3]; FIG. 12): protection of human fibroblasts; window between lowest and highest no effect doses ([9]; compared with SkQ1, biological examples 5 and 6): much wider; hydrogen peroxide formation by mitochondria at optimal concentration ([9]; optimal concentration, biological examples 5 and 6): almost completely prevented hydrogen peroxide formation; effect of myxothiasole on reduction of the quinone form ([10]; 1 uM myxothiasole added at 10 min point, FIG. 10): prevented further reduction; reduction by mitochondria ([10]; rat heart mitochondria 0.05 mg/ml, 5 mM succinate, 2 uM rotenone, 100 nM SkQT, FIG. 9): can be reduced by mitochondria
increased accumulation	no significant difference		CCN=c1cc2oc3cc(NCC)c(C)cc3c(-c3ccccc3C(=O)OCCCCCCCCCCC3=CC(=O)C(C)=CC3=O)c-2cc1C [SkQRT1, 10-(2-methyl-1,4-benzoquinonyl-5)-decyl ester of rhodamine 19]				
		SkQB>SkQT>SkQ1>SkQ3	CC1=C(C)C(=O)C(CCCCCCCCCC[P+](c2ccccc2)(c2ccccc2)c2ccccc2)=C(C)C1=O [SkQ3]				
		SkQB>SkQT>SkQ1>SkQ3	CC1=C(C)C(=O)C(CCCCCCCCCC[P+](c2ccccc2)(c2ccccc2)c2ccccc2)=CC1=O.[Br-] [SkQ1, reference compound]	good protection	prooxidant effect	considerably lower	
